Measurements taken from US20230310388A1, “Methods and Compositions for Treating Fungal Infections” (Neoculi Pty Ltd, priority 2020, published 2023).
In brackets after ≈: the same amount, converted by molar mass. Several values for one entry are separate records, joined by “and”; a condition that tells them apart may be missing. Equal values may be shown once. Read-outs that look alike come from different tables or passages of the source.

Legend:
Candida parapsilosis = test: CLSI broth microdilution MIC (Example 3); assay type: cell-based; conditions: Candida parapsilosis ATCC 22019
Experimental: (§1) Antifungal minimum inhibitory concentration (MIC) testing was undertaken as recommended by the CLSI. Briefly, antifungal susceptibility tests were performed for amphotericin B, robenidine (NCL812) and 5 robenidine analogs (NCL062, NCL195, NCL219, NCL259, NCL265) by standard broth microdilution method (CLSI) in RPMI 1640. Various concentrations (ranging from high to low) of the selected compounds were prepared in RPMI 1640 medium by double dilution in 96-well microtitre plates. Each well contained an inoculum of approximately 2×10^3 cells/mL. The wells without addition of drugs served as negative (no inoculum) and positive (inoculum only) growth controls. Microtitre plates were incubated at 35° C. for 24-48 hours. […] Antifungal MICs were determined for each isolate in duplicate; if the values obtained were different, the MIC test was repeated a third time. Antifungal susceptibility tests were performed for amphotericin B and NCL analogs by standard broth microdilution method (CLSI). Briefly, various concentrations (ranging from high to low) of the selected compounds were prepared in RPMI 1640 medium by double dilution in the 96-well plates. Each well contained an inoculum of approximately 2×10^3 cells/mL. The wells without addition of drugs served as a negative control. Micro plates were incubated at 35° C. for 48 hour and read spectrophotometrically at 600 nm, using a microplate reader (Multiskan-EX; Thermo Elect. Corp., USA).

Candida albicans [1] = test: CLSI broth microdilution MIC (Example 3); assay type: cell-based
Experimental: as §1

Cryptococcus neoformans [2] = test: CLSI broth microdilution MIC (Example 6); assay type: cell-based
Outline: (§2)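 CLSI broth microdilution in RPMI 1640, compounds serially double-diluted, inoculum about 2×10^3 cells/mL. Incubation at 35° C for 24-48 hours. MICs determined per isolate in duplicate, with a third repeat if values differed.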

Candida albicans [3] = test: CLSI broth microdilution MIC (Example 6); assay type: cell-based
Outline: as §2

Cryptococcus neoformans [4] = test: CLSI broth microdilution MIC (Example 4); assay type: cell-based
Outline: (§3)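 CLSI broth microdilution in RPMI 1640 with two-fold compound dilutions and inoculum about 2×10^3 cells/mL. Plates incubated 35° C for 24-48 hours; MICs determined in duplicate, with a third test when the duplicates differed.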

Candida albicans [5] = test: CLSI broth microdilution MIC (Example 4); assay type: cell-based; conditions: for antifungal activity against the two isolates of Candida albicans: summary in words
Outline: as §3

Malassezia pachydermatis = test: MIC, mSAB broth microdilution (Example 1); assay type: cell-based; conditions: for activity against all 13 isolates of Malassezia pachydermatis: summary in words
Excerpt: There is no recommended Clinical & Laboratory Standards Institute (CLSI) standard for M. pachydermatis. In the literature there are a number of papers which have developed Minimum Inhibitory Concentration (MIC) methodology for Malassezia species isolated from both humans and animals (ie both lipophilic and non-lipophilic species). In all papers, the methodology has been altered from the original CLSI protocols in order to overcome four main problem areas involved in testing this yeast. • 1) Finding a suitable growth medium for Malassezia, especially the lipophilic species. […] When testing the azole group of anti-fungal agents, there is also the well known trailing end point problem with MIC determination. Trailing occurs when the turbidity continually decreases as the drug concentration increases but the suspension fails to become optically clear (partial inhibition of growth over an extended range of antifungal concentrations). The following method was originally developed by Eichenberg et al. (2003) (mSAB broth microdilution method). The mSAB method was devised to follow as closely as possible the CLSI guidelines whilst still allowing for the distinct biochemical and growth requirements of M. pachydermatis. Sabouraud dextrose broth with 1% Tween 80 was chosen as the assay medium as it allowed for excellent growth of the organism. Higher inoculum concentrations (1-4×10^6 CFU/ml) and increased time of incubation (48 to 72 hours) were used to enable sufficient growth of the test strains.

C. gattii = test: CLSI broth microdilution MIC (Example 6); assay type: cell-based, Cryptococcus gattii
Outline: as §2

[6] = Example 6 isolates, summary in words
[7] = human clinical isolate C. gattii 16-90050373
[8] = human clinical isolate C. gattii 17-90028211

Compound: Cc1ccc(/C=N/Nc2cc(N/N=C/c3ccc(C)cc3)nc(N)n2)cc1 [NCL195]
- MIC (Candida parapsilosis; 1st): 1 µg/mL (≈ 2.78 µM)
- MIC (Candida parapsilosis; 2nd): 2 µg/mL (≈ 5.56 µM)
- MIC (Candida albicans [1]; Candida albicans ATCC 90028, 1st): 2 µg/mL (≈ 5.56 µM)
- MIC (Candida albicans [1]; Candida albicans ATCC 90028, 2nd): 2 µg/mL (≈ 5.56 µM)
- MIC (Candida albicans [1]; Candida albicans, 1st): 2 µg/mL (≈ 5.56 µM)
- MIC (Candida albicans [1]; Candida albicans, 2nd): 2 µg/mL (≈ 5.56 µM)
- MIC (Cryptococcus neoformans [2]; Cryptococcus neoformans SA1): 2 µg/mL (≈ 5.56 µM)
- MIC (Cryptococcus neoformans [2]; Cryptococcus neoformans SA2): 2 µg/mL (≈ 5.56 µM)
- activity against all isolates (Cryptococcus neoformans [2]; [6]): active
- relative potency among tested compounds (Cryptococcus neoformans [2]; [6]): most potent activity
- MIC (Cryptococcus neoformans [2]; human clinical isolate C. neoformans serotype A/D hybrid): 2 µg/mL (≈ 5.56 µM)
- MIC (Cryptococcus neoformans [2]; human clinical isolate C. neoformans var grubii 16-90050434): 2 µg/mL (≈ 5.56 µM)
- MIC (Cryptococcus neoformans [2]; human clinical isolate C. neoformans var grubii 17-90028233): 2 µg/mL (≈ 5.56 µM)
- MIC (Cryptococcus neoformans [2]; human clinical isolate C. neoformans var grubii 17-93996464): 2 µg/mL (≈ 5.56 µM)
- MIC (Cryptococcus neoformans [2]; human clinical isolate C. neoformans var grubii 17-93996964): 2 µg/mL (≈ 5.56 µM)
- MIC (Candida albicans [3]; C. albicans SA3): 2 µg/mL (≈ 5.56 µM)
- MIC (Candida albicans [3]; Candida albicans ATCC 90028): 2 µg/mL (≈ 5.56 µM)
- MIC at 24-48 hours (Cryptococcus neoformans [4]; Cryptococcus neoformans SA1): 2 µg/mL (≈ 5.56 µM)
- MIC at 24-48 hours (Cryptococcus neoformans [4]; Cryptococcus neoformans SA2): 2 µg/mL (≈ 5.56 µM)
- MIC at 24-48 hours (Candida albicans [5]; Candida albicans ATCC 90028): 2 µg/mL (≈ 5.56 µM)
- MIC at 24-48 hours (Candida albicans [5]; Candida albicans SA3): 2 µg/mL (≈ 5.56 µM)
- antifungal activity against the two isolates of Candida albicans (Candida albicans [5]): high antifungal activity
- MIC (Malassezia pachydermatis; Malassezia isolate M1-017): 1 µg/mL (≈ 2.78 µM)
- MIC (Malassezia pachydermatis; Malassezia isolate M-018): 1 µg/mL (≈ 2.78 µM)
- MIC (Malassezia pachydermatis; Malassezia isolate M-020): 1 µg/mL (≈ 2.78 µM)
- MIC (Malassezia pachydermatis; Malassezia isolate M-036): 1 µg/mL (≈ 2.78 µM)
- MIC (Malassezia pachydermatis; Malassezia isolate M-037): 1 µg/mL (≈ 2.78 µM)
- MIC (Malassezia pachydermatis; Malassezia isolate M-038): 1 µg/mL (≈ 2.78 µM)
- MIC (Malassezia pachydermatis; Malassezia isolate M-040): 0.5 µg/mL and 1 µg/mL
- MIC (Malassezia pachydermatis; Malassezia isolate M-052): 1 µg/mL (≈ 2.78 µM)
- MIC (Malassezia pachydermatis; Malassezia isolate M-055): 1 µg/mL (≈ 2.78 µM)
- MIC (Malassezia pachydermatis; Malassezia isolate M-060): 1 µg/mL (≈ 2.78 µM)
- MIC (Malassezia pachydermatis; Malassezia isolate M-066): 1 µg/mL (≈ 2.78 µM)
- MIC (Malassezia pachydermatis; Malassezia isolate M-067): 0.5 µg/mL and 1 µg/mL
- MIC (Malassezia pachydermatis; Malassezia isolate M-069): 1 µg/mL (≈ 2.78 µM)
- activity against all 13 isolates of Malassezia pachydermatis (Malassezia pachydermatis): highly active
- MIC (C. gattii; human clinical isolate C. gatti 17-90232099): 2 µg/mL (≈ 5.56 µM)
- MIC (C. gattii; [7]): 2 µg/mL (≈ 5.56 µM)
- MIC (C. gattii; [8]): 2 µg/mL (≈ 5.56 µM)
- MIC (C. gattii; human clinical isolate C. gattii 17-90028217): 2 µg/mL (≈ 5.56 µM)
- MIC (C. gattii; human clinical isolate C. gattii 17-90028242): 2 µg/mL (≈ 5.56 µM)

Compound: N=C(N/N=C/c1ccc(Cl)cc1)N/N=C/c1ccc(Cl)cc1 [NCL812, robenidine, reference compound]
- MIC (Candida parapsilosis; 2nd): 0.5 µg/mL (≈ 1.5 µM)
- MIC (Candida parapsilosis; Lodderomyces parapsilosis, ATCC22019, 1st, read-out: MIC): 0.5 µg/mL (≈ 1.5 µM)
- MIC (Candida albicans [1]; Candida albicans, ATCC90028, Candida albicans ATCC 90028, 1st, read-out: MIC): 0.25 µg/mL (≈ 0.748 µM)
- MIC (Candida albicans [1]; Candida albicans, ATCC90028, Candida albicans ATCC 90028, 2nd, read-out: MIC): 0.5 µg/mL (≈ 1.5 µM)
- MIC (Candida albicans [1]; Candida albicans, two Candida albicans and one Candida parapsilosis isolates, summary range, read-out: MIC): 0.5 to 8 µg/mL (≈ 1.5 to 23.9 µM)
- MIC (Candida albicans [1]; Candida albicans, 1st, read-out: MIC): 0.5 µg/mL (≈ 1.5 µM)
- MIC (Candida albicans [1]; Candida albicans, 2nd, read-out: MIC): 1 µg/mL (≈ 2.99 µM)
- MIC (Cryptococcus neoformans [2]; Cryptococcus neoformans, Cryptococcus neoformans SA1, read-out: MIC): 2 µg/mL (≈ 5.98 µM)
- MIC (Cryptococcus neoformans [2]; Cryptococcus neoformans, Cryptococcus neoformans SA2, read-out: MIC): 2 µg/mL (≈ 5.98 µM)
- MIC (Cryptococcus neoformans [2]; Cryptococcus neoformans, human clinical isolate C. neoformans serotype A/D hybrid, read-out: MIC): 16 µg/mL (≈ 47.9 µM)
- MIC (Cryptococcus neoformans [2]; Cryptococcus neoformans, human clinical isolate C. neoformans var grubii 16-90050434, read-out: MIC): 32 µg/mL (≈ 95.7 µM)
- MIC (Cryptococcus neoformans [2]; Cryptococcus neoformans, human clinical isolate C. neoformans var grubii 17-90028233, read-out: MIC): 32 µg/mL (≈ 95.7 µM)
- MIC (Cryptococcus neoformans [2]; Cryptococcus neoformans, human clinical isolate C. neoformans var grubii 17-93996464, read-out: MIC): 16 µg/mL (≈ 47.9 µM)
- activity against all isolates (Cryptococcus neoformans [2]; [6]): active
- activity against one or more isolates of Candida albicans and Cryptococcus neoformans (Cryptococcus neoformans [2]; summary in words): highly active
- MIC (Candida albicans [3]; ATCC90028, Candida albicans ATCC 90028, read-out: MIC): 2 µg/mL (≈ 5.98 µM)
- MIC (Candida albicans [3]; Candida albicans, C. albicans SA3, read-out: MIC): 2 µg/mL (≈ 5.98 µM)
- MIC at 24-48 hours (Cryptococcus neoformans [4]; Cryptococcus neoformans SA2): 2 µg/mL (≈ 5.98 µM)
- MIC (Cryptococcus neoformans [4]; read-out: MIC at 24-48 hours, Cryptococcus neoformans SA1): 2 µg/mL (≈ 5.98 µM)
- MIC (Cryptococcus neoformans [4]; two isolates of Cryptococcus neoformans, summary range, read-out: MICs): 1 to 16 µg/mL (≈ 2.99 to 47.9 µM)
- MIC (Candida albicans [5]; ATCC90028, read-out: MIC at 24-48 hours, Candida albicans ATCC 90028): 2 µg/mL (≈ 5.98 µM)
- MIC (Candida albicans [5]; read-out: MIC at 24-48 hours, Candida albicans SA3): 2 µg/mL (≈ 5.98 µM)
- antifungal activity against the two isolates of Candida albicans (Candida albicans [5]): high antifungal activity
- MIC (Malassezia pachydermatis; Malassezia isolate M-036): 2 µg/mL (≈ 5.98 µM)
- MIC (Malassezia pachydermatis; Malassezia isolate M-066): 2 µg/mL (≈ 5.98 µM)
- MIC (Malassezia pachydermatis; Malassezia pachydermatis, Malassezia isolate M1-017, read-out: MIC): 2 µg/mL (≈ 5.98 µM)
- MIC (Malassezia pachydermatis; Malassezia pachydermatis, Malassezia isolate M-018, read-out: MIC): 2 µg/mL (≈ 5.98 µM)
- MIC (Malassezia pachydermatis; Malassezia pachydermatis, Malassezia isolate M-020, read-out: MIC): 2 µg/mL (≈ 5.98 µM)
- MIC (Malassezia pachydermatis; Malassezia pachydermatis, Malassezia isolate M-036, read-out: MIC): 1 µg/mL (≈ 2.99 µM)
- MIC (Malassezia pachydermatis; Malassezia pachydermatis, Malassezia isolate M-037, read-out: MIC): 2 µg/mL (≈ 5.98 µM)
- MIC (Malassezia pachydermatis; Malassezia pachydermatis, Malassezia isolate M-038, read-out: MIC): 1 µg/mL (≈ 2.99 µM)
- MIC (Malassezia pachydermatis; Malassezia pachydermatis, Malassezia isolate M-040, read-out: MIC): 2 µg/mL (≈ 5.98 µM)
- MIC (Malassezia pachydermatis; Malassezia pachydermatis, Malassezia isolate M-052, read-out: MIC): 1 µg/mL (≈ 2.99 µM)
- MIC (Malassezia pachydermatis; Malassezia pachydermatis, Malassezia isolate M-055, read-out: MIC): 1 µg/mL (≈ 2.99 µM)
- MIC (Malassezia pachydermatis; Malassezia pachydermatis, Malassezia isolate M-060, read-out: MIC): 1 µg/mL (≈ 2.99 µM)
- MIC (Malassezia pachydermatis; Malassezia pachydermatis, Malassezia isolate M-066, read-out: MIC): 1 µg/mL (≈ 2.99 µM)
- MIC (Malassezia pachydermatis; Malassezia pachydermatis, Malassezia isolate M-067, read-out: MIC): 1 µg/mL (≈ 2.99 µM)
- MIC (Malassezia pachydermatis; Malassezia pachydermatis, Malassezia isolate M-069, read-out: MIC): 2 µg/mL (≈ 5.98 µM)
- activity against all 13 isolates of Malassezia pachydermatis (Malassezia pachydermatis): highly active
- MIC (C. gattii; Cryptococcus gattii, human clinical isolate C. gattii 17-90028217, read-out: MIC): 16 µg/mL (≈ 47.9 µM)
- MIC (C. gattii; [7]): 16 µg/mL (≈ 47.9 µM)
- MIC (C. gattii; [8]): 16 µg/mL (≈ 47.9 µM)
